Patent US8828997B2, “2,3-dihydro-1H-imidazo(1,2-a)pyrimidin-5-one derivatives, preparation thereof, and pharmaceutical use thereof” (Sanofi, priority 2009, dated 2014)

Key:
Type in all cases: cell-based
[1] = test system: translocation of the LC3 protein in Hela GFP-LC3 cells; assay: Translocation of the LC3 protein in Hela human cells measured by image analysis cytometry (test C, autophagy); details: Homo sapiens, HeLa, 2 h, EBSS + 10 μM hydroxychloroquine, cells with LC3 granulations, absolute IC50
Protocol: Inhibitory activity of the molecules on autophagy is measured by means of the translocation of the LC3 protein from the cytoplasm to the autophagosomes. For this, Hela cells were transfected with a vector encoding the chimeric protein GFP-LC3. A Hela clone stably expressing the GFP-LC3 protein was selected.
Study of the Translocation of the LC3 Protein in Hela Human Cells, Measured by Image Analysis Cytometry (Test C):
On day 1, the Hela GFP-LC3 cells are seeded into 96-well plates coated with poly-D-lysine (Greiner, #655946) at the concentration of 15000 cells/well in 200 μl of DMEM medium (DMEM Gibco #11960-044) containing 10% of foetal calf serum (FCS Gibco, #10500-056) and 1% glutamine (L-Glu Gibco #25030-024), and incubated at 37° C., 5% CO2, overnight.
On day 2, the cells are washed twice with EBSS (Sigma #E3024). The cells are then incubated in EBSS, 10 μM hydroxychloroquine and test products, for 2 hours at 37° C. in the presence of 5% CO2. The molecules are diluted in dimethyl sulphoxide (DMSO Sigma #D2650), the final DMSO percentage being 0.1%. The molecules are tested at increasing concentrations in a range that can extend from 10 nM to 1 μM.
After this incubation, the cells are fixed with 4% paraformaldehyde (Sigma #HT501128 4L) for 10 min. The cells are then washed twice with PBS and the nuclei then stained with 2 μg/ml of Hoechst 33342 (Invitrogen #H3570). The 96-well plates are then read with the iCyte image analysis cytometer (Compucyte).
The activity of the product is translated to IC50, obtained from a dose-response curve of various concentrations tested and representing the dose giving 50% specific inhibition (absolute IC50). 2 independent experiments make it possible to calculate the mean of the IC50 values.

[2] = test system: AKT protein phosphorylated on serine 473 (pAKT-S473) in PC3 human prostate carcinoma cells; assay: pAKT expression in PC3 human prostate carcinoma cells measured by western blotting (test A); details: PC-3, 1 to 2 h incubation, absolute IC50
Protocol: (§1) The inhibitory activity of the molecules on AKT phosphorylation is measured either by western blotting using the technique described below, or by the MSD Multi-spot Biomarker detection technique from Meso Scale Discovery also described below.
Study of pAKT Expression in PC3 Human Prostate Carcinoma Cells Measured by Western Blotting (test A):
This test is based on measuring the expression of the AKT protein phosphorylated on serine 473. The phosphorylation of AKT (pAKT) is measured by western blotting in the PC3 human prostate carcinoma line (ATCC CRL-1435), using an antibody that specifically recognises pAKT-S473.
(§2) On day 1, the PC3 cells are seeded into 6-well plates (TPP, #92006) at the concentration of 0.8×10^6 cells/well in 1800 μl of DMEM medium (DMEM Gibco #11960-044) containing 10% of foetal calf serum (SVF Gibco, #10500-056) and 1% glutamine (L-Glu Gibco #25030-024), and incubated at 37° C., 5% CO2, overnight.
(§3) On day 2, the cells are incubated in the presence or absence of the test products for 1 to 2 hours at 37° C. in the presence of 5% CO2. The molecules, diluted in dimethyl sulphoxide (DMSO Sigma #D2650), are added from a 10-times concentrated stock solution, the final percentage of DMSO being 0.1%. The molecules are tested either at a single concentration of less than or equal to 10 μM, or at increasing concentrations in a range that can extend from less than 1 nM to 10 μM.
After this incubation, the cells are lysed for the preparation of the proteins. After the culture medium has been drawn off, the cells are rinsed with 1 ml of PBS (DPBS Gibco, #14190-094), recovered by scraping in 200 μl of complete HNTG buffer and transferred into a 96-well plate (Greiner #651201), and lysed for 1 h on ice. The HNTG buffer is composed of the following mixture: 50 mM hepes, 150 mM NaCl, 1% triton, 10% glycerol, with extemporaneous addition of one Mini Protease Inhibitor Cocktail tablet (Roche 1836153) and of one Phosphatase Inhibitor Cocktail tablet (Roche104906837001) per 10 ml of buffer.
The lysate is centrifuged for 10 min at 6000 rpm. 155 μl of supernatant are recovered. 150 μl are incubated for denaturation for 5 min at 95° C. in the presence of 4× NuPAGE LDS Sample Buffer diluted 4-fold (InVitrogen ref NP0007) and of 10× NuPAGE Sample Reducing Agent diluted 10-fold (InVitrogen ref NP0009). These samples are then frozen at −20° C. 5 μl are assayed by the microBCA technique according to the technical bulletin of the MicroBCA Protein Assay Kit (Pierce #23235).
For protein separation, 20 μg of proteins are loaded on to a NU-PAGE 4-12% Bis Tris Gel 12 well (InVitrogen ref NP0322BOX) and the migration is carried out for 1 h 30 in 20× NU-PAGE MOPS SDS Running Buffer diluted 20-fold (InVitrogen ref NP0001), at 150 volts.
The gel is then transferred on to an Invitrolon PVDF membrane (Invitrogen #LC2007) permeabilised before and after a few seconds in ethanol (Ethanol Fischer Scientific #E/0600DF/15).
The transfer is carried out in a Biorad tank at 30 volts overnight or at 60 volts for 3 hours, in the presence of 20× NUPAGE Transfer Buffer diluted 20-fold (InVitrogen ref NP0006).
The membrane is then saturated in saturating solution composed of TBS (10× Tris Buffered Saline, Sigma #T5912, diluted 10-fold), 0.1% Tween 20 (Sigma #P5927) and 3% BSA (Bovine Albumin Serum Fraction V, Sigma #A4503) for 6 h after overnight transfer or else for 1 h after transfer for a period of 3 h.
The primary antibodies are diluted to 1/1000 for the anti-phospho AKT-Ser473 antibody (1931-12, rabbit monoclonal, cat#4058 from Cell Signaling Technology Abcam), in saturating solution composed of PBS, 0.1% Tween 20 and 3% BSA, and then shaken overnight at 4° C.
Two rinses for 5 min in washing solution composed of TBS and 0.1% Tween 20 are carried out before hybridisation of the secondary antibodies. […]

[3] = test system: P. falciparum (highly chloroquine-resistant strain Fcm29-Cameroon); assay: Antimalarial activity test (radioactive micromethod of Desjardins, tritiated hypoxanthine incorporation); details: Plasmodium falciparum, Erythrocyte, infected human erythrocytes, 48 h
Protocol: Antimalarial Activity Test
The antimalarial activity tests are carried out according to the radioactive micromethod of Desjardins (R. E. Desjardins, C. J. Canfield, J. D. Haynes, J. D. Chulay, Antimicrob. Agents Chemother., 1979, 16, 710-718). The assays are carried out in 96-well microplates (Test Plates Ref. 92696, Techno Plastic Products Ag, Zollstrasse 155, CH-8219 Trasadingen). The P. falciparum strains are cultured in solutions of RPMI 1640 supplemented with 5% of human serum with a haematocrit at 2% and a blood parasite concentration at 1.5%. For each assay, the parasites are incubated with selected concentrations of drugs for 48 h at 37° C. in a humid atmosphere and at 5% CO2. Artemisinin, artesunate and also chloroquine diphosphate are used as reference molecules. The first dilution of the drug is prepared at 1 mg/ml in dimethyl sulphoxide. The range of dilutions of the successive daughter solutions is also prepared in dimethyl sulphoxide. Each daughter dilution is subsequently diluted to 1/50 in RPMI 1640 supplemented with 5% of human serum, all the dilutions being carried out at 37° C. These dilutions are then added to the parasites in culture in the microplates. After addition of the drug, the parasites are in culture in RPMI 1640 containing 5% of human serum and 1% of dimethyl sulphoxide. The parasite growth is measured by incorporation of tritiated hypoxanthine (added 24 h after the beginning of the exposure to the drug) compared with the incorporation in the absence of drug.
The activity of the product is translated to % inhibition of the growth of P. falciparum (highly chloroquine-resistant strain Fcm29-Cameroon) at 1 μM and 0.1 μM in an in vitro test using infected human erythrocytes.

[4] = test system: AKT protein phosphorylated on serine 473 (P-AKT-S473) in PC3 human prostate carcinoma cells; assay: pAKT expression in PC3 human prostate carcinoma cells measured by MSD Multi-spot Biomarker detection (test B); details: Homo sapiens, PC-3, P-AKT-S473, PC3 cells, MSD sandwich immunoassay, 1 to 2 h incubation, absolute IC50
Protocol: as §1
Study of pAKT Expression in PC3 Human Prostate Carcinoma Cells Measured by the MSD Multi-Spot Biomarker Detection Technique from Meso Scale Discovery (Test B):
This test is based on measuring the expression of the AKT protein phosphorylated on serine 473 (P-AKT-S473), in the PC3 human prostate carcinoma line, by means of the technique based on a sandwich immunoassay using the MSD Multi-spot Biomarker Detection kit from Meso Scale Discovery: phospho-Akt (Ser473) whole cell lysate kit (#K151CAD) or phospho-Akt (Ser473)/Total Akt whole cell lysate kit (#K151OOD). The primary antibody specific for P-AKT-S473 (Kit #K151CAD) is coated onto an electrode in each well of the 96-well plates of the MSD kit: after the addition of a protein lysate to each well, the signal is visualised by adding a secondary detection antibody labelled with an electrochemoluminescent compound. The procedure followed is that described in the kit.
as §2, with “96-well” for “6-well”, “#92096)” for “#92006)”, “35 000” for “0.8×10^6”, “200” for “1800”, “(FCS” for “(SVF”
as §3, with “h” for “hours”, “5% of” for “5%”, “20-times” for “10-times”
After this incubation, the cells are lysed for the preparation of the proteins. For this, after the culture medium has been drawn off, 50 μl of complete Tris Lysis Buffer of the MSD kit containing the protease and phosphatase inhibitor solutions are added to the wells and the cells are lysed for 1 h at 4° C. with shaking. At this stage, the plates containing the lysates can be stored at −20° C. or at −80° C.
The wells of the 96-well plates of the MSD kit are saturated for 1 h at ambient temperature with the blocking solution of the MSD kit. Four washes are carried out with 150 μl of Tris Wash Buffer of the MSD kit. The lysates previously prepared are transferred into the 96-well multi-spot plates of the MSD kit and incubated for 1 h at ambient temperature, with shaking. Four washes are carried out with 150 μl of Tris Wash Buffer of the MSD kit. 25 μl of the MSD sulfo-tag detection antibody solution are added to the wells and incubated for 1 h at ambient temperature, with shaking. Four washes are carried out with 150 μl of Tris Wash Buffer of the MSD kit. 150 μl of Read Buffer of the MSD kit are added to the wells and the plates are read immediately on the S12400 instrument from Meso Scale Discovery.
The instrument measures a signal for each well. Wells without cells and containing the lysis buffer serve to determine the background noise that will be subtracted from all the measurements (min). The wells containing cells in the absence of product and in the presence of 0.1% DMSO are considered to be the 100% signal (max). The percentage inhibition is calculated for each concentration of test product according to the following formula: (1-((test−min)/(max−min)))×100.
The activity of the product is translated to IC50, obtained from a dose-response curve of the various concentrations tested and representing the dose giving 50% specific inhibition (absolute IC50). 2 independent experiments make it possible to calculate the mean of the IC50 values.

Row | Compound | IC50 [1] [nM] | IC50 [2] [nM] | IC50 [4] [nM] | inhibition at 1 µM [3] [%] | inhibition at 0.1 µM ([3]; 0.1 μM) [%]
1 | C[C@@]1(C(F)(F)F)Cn2c(nc(N3CCOCC3)cc2=O)N1CCCc1ccccc1 [Example 5, (S)-2-Methyl-7-morpholin-4-yl-1-(3-phenylpropyl)-2-trifluoromethyl-2,3-dihydro-1H-imidazo[1,2-a]pyrimidin-5-one] | 73 | 30 |  |  | 
2 | CCC(c1ccccc1)N1c2nc(N3CCOCC3)cc(=O)n2C[C@@]1(C)C(F)(F)F (single isomer, unassigned) [Example 14, (S)-2-Methyl-7-morpholin-4-yl-1-((S) or (R)-1-phenylpropyl)-2-trifluoromethyl-2,3-dihydro-1H-imidazo[1,2-a]pyrimidin-5-one] |  | 174 |  |  | 

Continued, in another order:

Row | IC50 [1] [nM] | IC50 [2] [nM] | IC50 [4] [nM] | Compound | inhibition at 1 µM [3] [%] | inhibition at 0.1 µM ([3]; 0.1 μM) [%]
3 |  | 79 |  | CC(c1ccccc1)N1c2nc(N3CCOCC3)cc(=O)n2C[C@@]1(C)C(F)(F)F (mixture of isomers) [Example 16, (2S)-2-Methyl-7-(morpholin-4-yl)-1-((R) and (5)-1-phenylethyl)-2-(trifluoromethyl)-2,3-dihydroimidazo[1,2-a]pyrimidin-5(1H)-one] |  | 
4 | 51 |  | 24 | C[C@@]1(C(F)(F)F)Cn2c(nc(N3CCOCC3)cc2=O)N1CCc1ccccc1Cl [Example 27, (2S)-1-[2-(2-Chlorophenyl)ethyl]-2-methyl-7-(morpholin-4-yl)-2-(trifluoromethyl)-2,3-dihydroimidazo[1,2-a]pyrimidin-5(1H)-one] | 53 | 
5 | 198 |  | 10 | C[C@@]1(C(F)(F)F)Cn2c(nc(N3CCOCC3)cc2=O)N1CCc1ccc(Cl)cc1 [Example 28, (2S)-1-[2-(4-Chlorophenyl)ethyl]-2-methyl-7-(morpholin-4-yl)-2-(trifluoromethyl)-2,3-dihydroimidazo[1,2-a]pyrimidin-5(1H)-one] | 53 | 14
